Reference: the supplement of paper PMC8967900

What was measured:
Experiment in all cases: selective drug sensitivity score (sDSS, relative to normal bone marrow) (sDSS (score)); higher = more potent and effective on the cell line relative to normal bone marrow cells
Conditions in all cases: 72 h
COG-LL-394h = test system: COG-LL-394h
LC4-1 = test system: LC4-1
COG-LL-332h = test system: COG-LL-332h
P12-ICHIKAWA = test system: P12-ICHIKAWA
MHH-CALL-4 = test system: MHH-CALL-4
MN-60 = test system: MN-60
HPB-ALL = test system: HPB-ALL
COG-LL-355h = test system: COG-LL-355h
NALM-16 = test system: NALM-16
NALM-6 = test system: NALM-6
KASUMI-10 = test system: KASUMI-10
SUP-B15 = test system: SUP-B15
KASUMI-9 = test system: KASUMI-9
ALL-PO = test system: ALL-PO
PF-382 = test system: PF-382
COG-LL-317 = test system: COG-LL-317
KARPAS-45 = test system: KARPAS-45
RCH-ACV = test system: RCH-ACV
MOLT-16 = test system: MOLT-16
MHH-CALL-2 = test system: MHH-CALL-2
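Further: ALL cell lines in 384-well plates, five doses spanning 10,000-fold, each plate scaled between vehicle and 100 µmol/L benzalkonium chloride controls, sDSS an adapted area-under-curve metric.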

Compound	selective drug sensitivity score (COG-LL-394h)	selective drug sensitivity score (LC4-1)	selective drug sensitivity score (COG-LL-332h)	selective drug sensitivity score (P12-ICHIKAWA)	selective drug sensitivity score (MHH-CALL-4)	selective drug sensitivity score (MN-60)	selective drug sensitivity score (HPB-ALL)	selective drug sensitivity score (COG-LL-355h)	selective drug sensitivity score (NALM-16)	selective drug sensitivity score (NALM-6)	selective drug sensitivity score (KASUMI-10)	selective drug sensitivity score (SUP-B15)	selective drug sensitivity score (KASUMI-9)	selective drug sensitivity score (ALL-PO)	selective drug sensitivity score (PF-382)	selective drug sensitivity score (COG-LL-317)	selective drug sensitivity score (KARPAS-45)	selective drug sensitivity score (RCH-ACV)	selective drug sensitivity score (MOLT-16)	selective drug sensitivity score (MHH-CALL-2)
CC[C@H](Nc1ncnc2[nH]cnc12)c1nc2cccc(F)c2c(=O)n1-c1ccccc1 [Idelalisib] (top concentration 10000 nM)	-2.16	-0.16	0.04	-1.26	4.04	-2.16	-2.16	3.14	-2.16	7.24	-0.26	-2.16	7.54	-1.06	-0.36	0.04	1.54	23.8	1.24	11.3
O=C(Nc1ccncc1)C(=O)c1cn(Cc2ccc(Cl)cc2)c2ccccc12 [Indibulin] (top concentration 10000 nM)	1.54	17.3	6.34	6.54	1.54	1.84	14.2	-1.46	9.34	0.34	11.3	11.8	12	12.7	4.74	6.24	6.84	14.6	16	5.74
CC(C)C[C@H](NC(=O)CNC(=O)c1cc(Cl)ccc1Cl)B(O)O [Ixazomib] (top concentration 1000 nM)	5.26	6.46	8.16	5.76	7.96	-1.84	8.46	6.56	0.66	6.66	3.16	11.5	6.56	8.46	7.86	6.26	5.96	7.36	7.06	5.26
CC(C)NC(=O)COc1cccc(-c2nc(Nc3ccc4[nH]ncc4c3)c3ccccc3n2)c1 [KD025] (top concentration 5000 nM)	-1.36	6.44	-0.56	-4.06	1.04	-5.36	-3.26	-0.86	-1.16	1.14	-5.36	2.14	4.04	5.24	1.04	-5.36	-2.76	-2.16	0.64	3.94
Nc1cccc2c1CN(C1CCC(=O)NC1=O)C2=O (stereo not given) [Lenalidomide] (top concentration 100000 nM)	-2.28	-0.58	0.22	-2.28	5.42	-2.28	-2.28	2.82	-0.38	-2.28	3.22	-2.28	7.42	-2.28	-2.28	2.92	-2.28	4.42	-0.88	1.92
Sc1ncnc2nc[nH]c12 [Mercaptopurine] (top concentration 10000 nM)	0.5	17.1	15.5	9.6	11.1	6.6	14.9	0.5	7.9	9.1	6.9	12.7	15.4	14.9	9.2	23.7	17.1	14.2	16.9	13.4
Cc1ccc(C(=O)Nc2ccc(Oc3cc4cnn(C)c4cc3-c3cn[nH]c3)c(F)c2)c(=O)n1-c1ccc(F)cc1 [Merestinib] (top concentration 1000 nM)	-0.62	-0.62	-0.62	-0.62	-0.42	1.38	-0.62	-0.62	2.58	-0.62	14.8	-0.62	0.18	15.2	-0.62	-0.62	-0.62	1.08	-0.62	9.68
CNC(=O)c1nn(C)c2c1C(C)(C)Cc1cnc(Nc3ccc(N4CCN(C)CC4)cc3)nc1-2 [Milciclib] (top concentration 10000 nM)	1.74	5.94	3.24	2.34	-0.06	2.04	4.44	5.44	3.34	1.94	12.6	8.14	9.94	9.94	4.84	8.94	5.04	14.3	6.44	9.54
N#CCNC(=O)c1ccc(-c2ccnc(Nc3ccc(N4CCOCC4)cc3)n2)cc1 [Momelotinib] (top concentration 10000 nM)	-3.92	-4.62	-0.82	-0.12	-1.12	-7.22	-8.52	-0.92	-8.32	-0.32	0.98	0.88	-0.12	2.48	-3.42	-5.32	0.18	5.78	0.28	-2.22
Cc1ccc(C(=O)Nc2cccc(C(F)(F)F)c2)cc1Nc1nc(-c2cccnc2)nc2c1cnn2C [NVP-BHG712] (top concentration 10000 nM)	-2.32	3.38	5.98	3.08	1.18	0.68	0.18	4.48	-2.32	-2.32	3.38	7.98	5.18	2.48	3.38	1.48	3.48	7.78	3.68	5.28
Cn1c(Nc2ccc(C(F)(F)F)cc2)nc2cc(Oc3ccnc(-c4ncc(C(F)(F)F)[nH]4)c3)ccc21 [NVP-RAF265] (top concentration 1000 nM)	5.98	7.48	3.28	2.58	7.48	-0.22	0.08	10.3	6.18	-0.22	6.08	7.78	4.48	6.68	1.48	7.28	7.68	6.68	8.68	12
CC1(C)CC[C@]2(NC(=O)C(C)(F)F)CC[C@]3(C)[C@H](C(=O)C=C4[C@@]5(C)C=C(C#N)C(=O)C(C)(C)[C@@H]5CC[C@]43C)[C@@H]2C1 [Omaveloxolone] (top concentration 10000 nM)	0.48	7.38	3.48	1.88	1.28	1.08	3.58	4.88	4.58	2.58	2.58	8.38	1.88	3.08	1.08	4.88	1.68	6.28	4.88	0.58
CC(C)c1cc(C(=O)N2Cc3ccc(CN4CCN(C)CC4)cc3C2)c(O)cc1O [Onalespib] (top concentration 2500 nM)	-2.38	3.22	7.62	2.22	-0.48	-0.48	4.62	3.32	1.82	5.52	3.92	3.92	-2.18	1.62	5.62	11.5	5.42	6.52	7.42	-1.28
COC[C@H](NC(=O)c1cnc(C)s1)C(=O)N[C@@H](COC)C(=O)N[C@@H](Cc1ccccc1)C(=O)[C@@]1(C)CO1 [Oprozomib] (top concentration 2500 nM)	1.2	3.7	10.6	2.1	1.4	-4.3	-0.5	8.4	1.9	-0.4	3.7	14	3.2	0.8	11.3	7.9	4.6	-1.1	4.7	0.4
COc1ccccc1S(=O)(=O)Nc1ccc2c(c1)CN(C)C(=O)N2 [PFI-1] (top concentration 30000 nM)	0.3	4.2	-0.5	0.8	2.7	2.9	1	8.7	-1	1.7	3.5	8.5	6	2.7	1.8	2.5	3.1	5.4	8.6	3.5
NS(=O)(=O)OC[C@@H]1C[C@@H](n2ccc3c(N[C@H]4CCc5ccccc54)ncnc32)C[C@@H]1O [Pevonedistat] (top concentration 10000 nM)	2.7	10	20.2	16.7	11.5	6.5	5.7	6	4.1	12.1	19.1	15.2	6.2	12.7	13.2	15.7	12.1	12.3	16.7	10
CCCCc1nc2cc(/C=C/C(=O)NO)ccc2n1CCN(CC)CC [Pracinostat] (top concentration 10000 nM)	0.18	6.18	0.58	5.08	6.28	-1.42	6.88	3.58	0.98	2.78	6.18	5.98	8.18	5.58	3.38	3.88	9.78	14.6	6.28	8.98
COc1cccc(OCCCN)c1-c1cc(Nc2cnc(C#N)cn2)n[nH]1 [Prexasertib] (top concentration 10000 nM)	-0.96	19.6	20.7	19	11.4	4.24	14.6	4.24	13.8	18.4	16.1	20.9	20.4	14.5	16.9	20.2	17.5	20.9	21	20.1
